Test results reported in US11492331B2, “Redox substrates for leukocyte esterase” (THE BOARD OF REGENTS OF THE UNIVERSITY OF TEXAS SYSTEM, priority 2017, dated 2022).
Values after ≈ are worked out from the molar mass of the structure shown. Counter-ions that a name gives are not always drawn.

Key:
[1] = test system: leukocyte esterase (LE); assay: Kinetics of reaction with LE by ICECEA (Michaelis-Menten); format: biochemical, human; conditions: 6.0 nM LE; for Km / kcat: 1-40 μM compound, PBS pH 7.40, 21° C.; for kcat Km^−1: PBS pH 7.40, Table 2
Experimental: FIG. 2. Michaelis-Menten plots for 6.0 nM LE and 1-40 μM compound: (a) I, (b) II, and (c) III, in PBS (pH 7.40). The solid lines represent the best fit to the experimental points based on the nonlinear regression.
The properties of compounds I-III as LE substrates were further investigated by determining their kinetics of reaction with LE (reaction 1). The initial rate of reaction 1 was measured by ICECEA at a constant LE concentration (cLE=6.0 nM; MW=29 kDa) and under the condition of cLE<<ccompound I-III(ccompound I-III=1-40 μM). The assays were conducted within a linear range of calibration plot for HQ at a GC electrode. One unit (U) of LE activity was defined as the amount of enzyme that catalyzed the hydrolysis of 1.0 μmole of a compound I-III per minute in a PBS solution at room temperature (21° C.). The LE activity (U L^−1) was calculated from the equation
[formula] where AS is an assay slope equal to the slope of rising I-t segment and CS is a calibration slope calculated from the I-t steps of ICECEA traces similar to those shown in FIG. 1. […] The analysis of such plots using the Michaelis-Menten kinetics yielded the Michaelis constants Km and turnover numbers kcat, which are shown in Table 1.

[2] = test system: leukocyte esterase (LE) of white blood cell (WBC) suspensions; assay: Electrochemical LE assay (ICECEA) of human leukocyte suspensions; format: biochemical; conditions: for Average activity of single WBC: 100 μM substrate, pH 7.40 PBS, 0.40 V, from slopes of FIG. 3
Experimental: FIG. 3. Dependence of LE activity on the white blood cell (WBC) count in leukocyte suspensions determined by using ICECEA and compound: (a) I, (b) II, and (c) III. Assay solution, 100 μM substrate I, II, or III in a pH 7.40 PBS solution. Concentration of HQ calibration spikes, 0.54 μM. Dilution factor, 100×. Potential, 0.40 V.
Finally, the compounds I-III were tested in the development of electrochemical LE assay using the ICECEA. The assay was optimized with respect to the detection potential, sample dilution factor, and solution composition (pH, concentration). Such assay was used to determine the esterolytic activity of a series of human leukocyte suspensions. […] Accordingly, the average esterolytic activity of single WBC calculated using the slopes of plots in FIG. 3 was the highest when determined using a compound III (Table 2).
Preparation of Leukocyte Suspensions. The original suspension of leukocytes was diluted 10 times with a PBS solution that contained 10 vol. % DMSO and left for 30 min on a shaker table at 60 rpm to lyse the leukocytes chemically. Such a suspension preserved a constant esterolytic activity for at least 5 days when stored in a refrigerator at 4° C. It was used as a solution C (vide infra) for the ICECEA.

[3] = Solubility in water by UV-visible spectrophotometry; format: physicochemical; conditions: thermodynamic from solid, room temperature (21° C.), A270
Experimental: Solubility. The solubility of compounds I-III was determined by UV-visible spectrophotometry. The compounds were dissolved in water at room temperature (21° C.) to make a series of solutions with increasing concentration. The solutions were stirred continuously and their spectra were recorded until steady-state equilibrium was reached. Below the solubility limit, the steady-state background-corrected absorbance of solution at 270 nm (A270) was directly proportional to the compound concentration as expected by the Beer-Lambert law. Above the solubility limit, the absorbance steadily levelled off. The low- and high-concentration regions of plots A270 vs. compound concentration were linearized and extrapolated to a crossing point, which was taken as the solubility of compound.

[4] = test system: leukocyte esterase (LE); assay: ICECEA test of recognition of compounds by LE as substrates (release of hydroquinone); format: biochemical, human; conditions: 60 μg mL^−1 compound, 86.7 μg L^−1 LE protein, pH 7.40 PBS, 0.40 V
Experimental: FIGS. 1A-B. (A) ICECEA I-t trace recorded at 0.40 V in a stirred pH 7.40 assay solution containing a tested compound. Each current step is due to the addition of hydroquinone calibrating aliquot to a solution. […] Otherwise, this segment was flat. (B) ICECEA current-time (I-t) traces recorded at a GC electrode in a stirred assay solution of compound (a) I, (b) II, (c) III. Trace # is for a precursor 1 to compounds I-III (Scheme 2). Arrows indicate the addition of 50 μL aliquots of hydroquinone (HQ) and leukocyte esterase (LE) to generate 0.54 μM HQ and 86.7 μg L^−1 LE protein in a solution. Assay solution, pH 7.40 PBS solution containing 60 μg mL^−1 of compound I-III or precursor 1. Traces were overlaid and shortened to show only the linear portion of ascending I-t segments. Potential, 0.40 V.
The initial electrochemical tests were performed to assess a degree of the recognition of compounds I-III by LE as its substrates. […]
The ICECEA was conducted by using phosphate buffer saline (PBS) solutions (pH 7.40, 154 mM NaCl) that contained either a tested compound, HQ, or LE. The current flowing through the GC electrode was measured while spiking 5.00 mL of a stirred assay solution of tested compound with triplicate aliquots of HQ solution and an aliquot of LE solution (FIG. 1). […]

Km [1] [µM]	kcat [1] [s⁻¹]	kcat Km^−1 [1] [M⁻¹ s⁻¹]	solubility [3] [µg/mL]	recognition by LE as substrate (rising I-t segment after LE addition) [4]	SMILES	Average activity of single WBC [2] [nU]	detection limit of LE assay ([2]; human leukocyte suspensions, ICECEA) [WBC μL^−1]
12	3.2	270000	50 (≈ 93.5 µM)		C[C@H](NS(=O)(=O)c1cccnc1)C(=O)Oc1ccc(OC(=O)[C@H](C)NS(=O)(=O)c2cccnc2)cc1 [Compound I, 4-(((pyridin-3-ylsulfonyl)-L-alanyl)oxy)phenyl (pyridin-3-ylsulfonyl)-L-alaninate]	0.8	
14	5.3	380000	500 (≈ 841 µM)		COc1ccc(S(=O)(=O)N[C@@H](C)C(=O)Oc2ccc(OC(=O)[C@H](C)NS(=O)(=O)c3ccc(OC)nc3)cc2)cn1 [Compound II, 4-((((6-methoxypyridin-3-yl)sulfonyl)-L-alanyl)oxy)phenyl ((6-methoxypyridin-3-yl)sulfonyl)-L-alaninate]	1.5	
11	6.4	580000	4000 (≈ 6150 µM)		COC(=O)c1cncc(S(=O)(=O)N[C@@H](C)C(=O)Oc2ccc(OC(=O)[C@H](C)NS(=O)(=O)c3cncc(C(=O)OC)c3)cc2)c1 [Compound III, methyl 5-{[(2S)-1-(4-{[(2S)-2-[5-(methoxycarbonyl)pyridine-3-sulfonamido]propanoyl]oxy}phenoxy)-1-oxopropan-2-yl]sulfamoyl}pyridine-3-carboxylate]	4.5	20
				no rising I-t segment	C[C@H](N)C(=O)Oc1ccc(OC(=O)[C@H](C)N)cc1 [precursor 1, 1,4-phenylene (2S,2′S)-bis(2-aminopropanoate)-bis hydrochloride]		
